{
  "source": "patent US11680298B2",
  "about": "“Method of identifying risk of cancer and therapeutic options” (Agency for Science, Technology and Research, priority 2016, dated 2023)",
  "key": {"IRAK1 [1]": {"biological_target": "T1, IRAK1 (Homo sapiens, UniProt P51617)", "T1 sequence (P51617 whole entry)": "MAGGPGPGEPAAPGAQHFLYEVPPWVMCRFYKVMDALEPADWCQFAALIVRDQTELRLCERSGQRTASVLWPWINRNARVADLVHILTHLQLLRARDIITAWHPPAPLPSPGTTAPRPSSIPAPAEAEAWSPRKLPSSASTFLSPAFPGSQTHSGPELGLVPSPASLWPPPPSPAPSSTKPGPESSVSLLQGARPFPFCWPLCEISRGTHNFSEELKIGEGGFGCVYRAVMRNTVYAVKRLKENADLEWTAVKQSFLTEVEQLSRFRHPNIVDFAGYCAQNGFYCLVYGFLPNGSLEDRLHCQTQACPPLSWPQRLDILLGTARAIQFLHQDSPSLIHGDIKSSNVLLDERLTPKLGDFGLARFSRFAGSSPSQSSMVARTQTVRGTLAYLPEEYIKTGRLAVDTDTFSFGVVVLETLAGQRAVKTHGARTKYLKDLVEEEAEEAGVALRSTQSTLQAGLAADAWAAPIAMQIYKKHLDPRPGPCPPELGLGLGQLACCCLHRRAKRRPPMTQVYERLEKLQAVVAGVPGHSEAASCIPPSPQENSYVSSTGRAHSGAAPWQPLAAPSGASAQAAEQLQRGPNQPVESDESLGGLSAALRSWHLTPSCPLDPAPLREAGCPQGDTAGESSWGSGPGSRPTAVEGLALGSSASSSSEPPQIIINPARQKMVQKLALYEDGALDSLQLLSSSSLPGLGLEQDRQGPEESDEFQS", "assay": "Western blot of phospho-IRAK1 in breast cancer cells and patient-derived tumourspheres", "type": "cell-based", "parameters": "endogenous in cells; host or cells: MB468 and MB231 cells; PDX-derived tumourspheres", "experimental": "Recombinant IL-1p (Cat no: 200-01B) was purchased from Peprotech (Rocky Hill, N.J.). Recombinant S100A7 (Cat no: pro-149), S100A8 (Cat no: pro-800) and S100A9 (Cat no: pro-814), were purchased from ProSpec (East Brunswick, N.J.). Cells were treated with recombinant proteins at stated concentration for 20 min before harvesting for western blot. Paclitaxel (Cat no: P-9600) was purchased from LC Lab (Woburn, Mass.).\n(§1) All immunoblots shown in this specification represent at least two independent experiments. In brief, cells were washed with PBS and lysed in RIPA buffer supplemented with protease and phosphatase inhibitors and further sonicated using an XL2000 Microson Ultrasonice Processor (Misonix). Equal amounts of protein extract were separated on SDS-polyacrylamided gels and transferred to PVDF membranes. Membranes were further blocked with 5% milk or BSA, and then probed with the following antibodies: anti-IRAK1 was purchased from Santa Cruz Biotechnology (Santa Cruz, Calif.; sc-7883), anti-phospho-IRAK1 (T209) was purchased from Assay Biotech (Sunnyvale, Calif.; A1074), anti-JAK2 (Danvers, Mass.; #3230) and anti-phospho-JAK2 ([…]) (Danvers, Mass.: #3774) were purchased from Cell Signaling Technology, anti-actin was purchased from Sigma Aldrich CA; A5441). For protein extraction of xenograft tumours, snap frozen samples were resuspended in RIPA buffer supplemented with protease and phosphatase inhibitors and homogenized with QIAGEN TissueLyzer II as described by the manufacturer, followed by immunoblotting as described above."}, "JAK2": {"biological_target": "T2, JAK2 (Homo sapiens, UniProt O60674)", "T2 construct": "endogenous in cells; host or cells: MB468 and MB231 cells; PDX-derived tumourspheres", "T2 sequence (O60674 whole entry)": "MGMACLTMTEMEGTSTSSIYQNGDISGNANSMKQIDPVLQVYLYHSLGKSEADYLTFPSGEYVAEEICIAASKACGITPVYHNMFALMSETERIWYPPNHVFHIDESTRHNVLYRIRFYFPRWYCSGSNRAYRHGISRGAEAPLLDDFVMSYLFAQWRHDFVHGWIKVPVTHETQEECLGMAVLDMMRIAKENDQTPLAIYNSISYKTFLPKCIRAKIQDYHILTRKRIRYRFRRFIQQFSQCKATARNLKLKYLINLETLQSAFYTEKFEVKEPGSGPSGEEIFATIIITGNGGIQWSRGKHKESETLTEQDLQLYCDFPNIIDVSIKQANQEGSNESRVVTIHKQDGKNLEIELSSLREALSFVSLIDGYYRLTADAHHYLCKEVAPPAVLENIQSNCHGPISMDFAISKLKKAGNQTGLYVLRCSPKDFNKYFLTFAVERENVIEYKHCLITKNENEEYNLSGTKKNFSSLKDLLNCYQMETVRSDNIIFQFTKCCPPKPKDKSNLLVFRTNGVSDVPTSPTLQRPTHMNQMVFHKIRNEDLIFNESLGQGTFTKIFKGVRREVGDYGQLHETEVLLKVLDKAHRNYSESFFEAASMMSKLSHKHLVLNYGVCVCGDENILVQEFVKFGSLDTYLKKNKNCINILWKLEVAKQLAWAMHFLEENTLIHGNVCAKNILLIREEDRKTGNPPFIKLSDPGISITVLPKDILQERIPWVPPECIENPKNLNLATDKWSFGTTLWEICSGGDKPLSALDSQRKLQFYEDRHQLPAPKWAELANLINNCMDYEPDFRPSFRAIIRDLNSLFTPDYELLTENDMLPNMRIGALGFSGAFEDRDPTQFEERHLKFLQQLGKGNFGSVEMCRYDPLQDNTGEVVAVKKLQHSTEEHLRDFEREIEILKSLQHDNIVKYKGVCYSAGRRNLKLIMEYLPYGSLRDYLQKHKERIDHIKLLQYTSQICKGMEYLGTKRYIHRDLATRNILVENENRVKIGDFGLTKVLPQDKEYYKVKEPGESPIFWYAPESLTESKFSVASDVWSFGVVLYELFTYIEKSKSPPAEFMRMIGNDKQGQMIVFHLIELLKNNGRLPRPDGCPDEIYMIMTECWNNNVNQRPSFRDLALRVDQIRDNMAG", "assay": "Western blot of phospho-JAK2 in breast cancer cells and patient-derived tumourspheres", "type": "cell-based", "conditions": "6 hr pacritinib treatment, western blot", "excerpt": "as §1"}, "MB231 tumourspheres": {"tested_on": "MB231 tumourspheres", "assay": "Mammosphere (tumoursphere) formation assay, MB231", "type": "cell-based", "conditions": "MB231 cell line", "experimental": "(§2) Mammosphere Formation Assay PDX-derived tumoursphere cells were trypsinized and passed through 40 μm cell strainer to achieve single cell suspensions. 3×10^4 cells were seeded in 6-well ultra-low attachment plates (Corning, N.Y.; CLS3471) in serum-free DMEM/F12 supplemented with N2 and B27 (Gibco, Grand Island, N.Y.), 20 ng/ml epidermal growth factor (MACS, Auburn, Calif.), 20 ng/ml basic fibroblast growth factor (MACS, Auburn, Calif.), 0.2 μM Thiazovivin ([…] Technologies, Vancouver, BC) and penicillin/streptomycin (Gibco, Carlsbad, Calif.). For breast cancer cell lines and MCF10A cell line, 3×10^4 cells were seeded in 6-well ultra-low attachment plates in Mammocult medium (Stem Cell Technologies, Vancouver, BC, Canada), supplemented with fresh hydrocortisone (0.5 μg/ml) and heparin (1:500). Mammospheres were maintained at 37° C. with 5% CO2 and topped up with medium every 3 days. After 7-9 days, mammospheres were stained with INT (2-(4-iodophenyl)-3-(4-nitrophenyl)-5-phenyl-2H-tetrazolium chloride, Sigma-Aldrich) and quantified. Imaging and quantification were done using GelCount apparatus and associated software (Oxford Optronix, Abingdon, UK). […] Cell Proliferation Assay"}, "IRAK1 [2]": {"biological_target": "T1, IRAK1", "conditions": "recently reported; cited from earlier work"}, "[3]": {"assay": "Tolerability during treatment in the PDX mouse model", "conditions": "in vivo", "experimental": "Surgical procedures and experiments were conducted in compliance with animal protocols approved by the A*STAR-Biopolis Institutional Animal Care and Use Committee of Singapore (IACUC). 6-8 wk old female NOD/MrkBomTac-Prkdcscid mice were purchased from InVivos (Singapore). For PDX orthotopic xenotransplantation, tissue suspension was first prepared from whole tumour explant from mammary fat pad of immunodeficient mice. Whole tumours were washed in PBS, minced with sterile scalpel and triturated until cells could pass through needle bore. The PDX cell suspension was resuspended in reduced Matrigel (BD Bioscience, Cat No: 356230), and then 10 μl was injected into the mammary fat pad. Autoclips was used for primary wound closure. Mice were observed post-procedure for 1-2 hr, and their body weights and wound healing were monitored weekly. Tumours were measured by vernier caliper twice weekly and the tumour volume was calculated with the following formula: V=W×W×L/2.\nFor in vivo PDX model, each mouse bore one PDX tumour on one side of the mammary fat pad. After the tumours reach 100 mm^3, the mice were randomized into two groups: Vehicle treated control tumour (n=4) and paclitaxel treated tumour ([…]). […] Following the drug treatments, the tumours were monitored for approximately one month. […]"}, "[4]": {"tested_on": "PDX-derived tumourspheres", "assay": "Mammosphere (tumoursphere) formation assay, PDX-derived tumourspheres", "type": "cell-based, human", "conditions": "four different PDX-derived tumourspheres", "experimental": "as §2"}, "MB231 tumours": {"tested_on": "MB231 tumours", "assay": "In vivo pacritinib sensitivity test, MB231 orthotopic xenograft", "parameters": "species or system NOD-SCID mice", "conditions": "1q21.3 non-amplified MB231; 50, 100 and 150 mg/kg pacritinib daily by oral gavage for 21 days"}},
  "note": "“Also recorded” adds a separate entry of the source.",
  "data": [
    {"smiles": "C1=C/COCc2cc(ccc2OCCN2CCCC2)Nc2nccc(n2)-c2cccc(c2)COC/1", "note": "[pacritinib]", "values": [
      {"measurement": "phosphorylation of IRAK1", "setting": "IRAK1 [1]; MB468 cells, 6 hr pacritinib treatment, western blot", "result": "inhibition of phospho-IRAK1 and phospho-JAK2 within 6 hr; also recorded: effectively block the phosphorylation of both IRAK1 and JAK2 as early as 6 hours in a dose-dependent manner"},
      {"measurement": "phospho-IRAK1", "setting": "IRAK1 [1]; patient-derived (PDX-derived) tumoursphere cells, 24 hr, pacritinib 2.5 μM, with and without IL-1", "result": "prolonged inhibition of phospho-IRAK1; also recorded: sustained inhibition of phospho-IRAK1"},
      {"measurement": "phosphorylation of JAK2", "setting": "JAK2; MB231 cells", "result": "inhibition of phospho-IRAK1 and phospho-JAK2 within 6 hr; also recorded: inhibited phosphorylation of JAK2"},
      {"measurement": "phosphorylation of JAK2", "setting": "JAK2; MB468 cells", "result": "inhibition of phospho-IRAK1 and phospho-JAK2 within 6 hr; also recorded: effectively block the phosphorylation of both IRAK1 and JAK2 as early as 6 hours in a dose-dependent manner"},
      {"measurement": "number of tumourspheres", "setting": "MB231 tumourspheres", "result": "little effect"},
      {"measurement": "IRAK1 inhibition", "setting": "IRAK1 [2]", "result": "potent IRAK1 inhibitor"},
      {"measurement": "tolerability", "setting": "[3]", "result": "tolerated very well"},
      {"measurement": "toxicity and body weight loss", "setting": "[3]", "result": "no obvious toxicity and body weight loss"},
      {"measurement": "tumoursphere growth", "setting": "[4]", "result": "strong tumoursphere growth inhibition"},
      {"measurement": "tumour growth", "setting": "MB231 tumours", "result": "no obvious effect"}
    ]}
  ]
}
